Assays:
NRF2 = NRF2 activation assay (DiscoverX PathHunter NRF2 translocation kit, U2OS cells); assay type: cell-based; settings: 6 hours
Protocol: Biological Example 2—NRF2 Activation Assay
Measuring Compound Activation Effects on the Anti-Inflammatory Transcription Factor NRF2 in DiscoverX PathHunter NRF2 Translocation Kit
Potency and efficacy of compounds of formula (I) against the target of interest to activate NRF2 (nuclear factor erythroid 2-related factor 2) were determined using the PathHunter NRF2 translocation kit (DiscoverX). The NRF2 translocation assay was run using an engineered recombinant cell line, utilising enzyme fragment complementation to determine activation of the Keap1-NRF2 protein complex and subsequent translocation of NRF2 into the nucleus. Enzyme activity was quantified using a chemiluminescent substrate consumed following the formation of a functional enzyme upon PK-tagged NRF2 translocation into the nucleus.
Additionally, a defined concentration of DMF was used as the ‘High’ control to normalise test compound activation responses to.
U2OS PathHunter eXpress cells were thawed from frozen prior to plating. Following plating, U2OS cells were incubated for 24 hrs (37° C./5% CO2) in commercial kit provided cell medium.
Following 24 hrs of incubation, plated U2OS cells were directly treated with an appropriate final concentration of compound. […]
Following compound treatment, the U2OS plates were incubated for a further 6 hours (37° C./5% CO2) before detection reagent from the PathHunter NRF2 commercial kit was prepared and added to test plates according to the manufacturer's instructions. Subsequently, the luminescence signal detection was measured in a microplate reader (PHERAstar®, BMG Labtech).
Percentage activation was calculated by normalising the sample data to the high and low controls used within each plate (+/−DMF). Percentage activation/response was then plotted against compound concentration and the 50% activation concentration ([…]) was determined from the plotted concentration-response curve.

[1] = system: cryo-preserved hepatocytes; assay: Hepatocyte stability assay, mouse cryopreserved hepatocytes; assay type: in vitro ADME
Source text: (§1) Biological Example 3—Hepatocyte Stability Assay
(§2) Defrosted cryo-preserved hepatocytes (viability >70%) were used to determine the metabolic stability of a compound via calculation of intrinsic clearance (CIint; a measure of the removal of a compound from the liver in the absence of blood flow and cell binding). Clearance data are particularly important for in vitro work as they can be used in combination with in vivo data to predict the half-life and oral bioavailability of a drug.
(§3) The metabolic stability in hepatocytes assay involves a time-dependent reaction using both positive and negative controls. The cells were pre-incubated at 37° C. and spiked with test compound (and positive control); samples taken at pre-determined time intervals were analysed to monitor the change in concentration of the initial drug compound over 60 minutes. A buffer incubation reaction (with no hepatocytes present) acted as a negative control and two cocktail solutions, containing compounds with known high and low clearance values (verapamil/7-hydroxycoumarin and propranolol/diltiazem), acted as positive controls. • 1. The assay was run with a cell concentration of 0.5×10^6 cells/mL in Leibovitz buffer. • 2. All compounds and controls were run in duplicate. • 3. Compound concentration was 10 μM. • 4. All compounds and controls were incubated with both cells and buffer to show turnover was due to hepatic metabolism. • 5. All wells on the incubation plate had 326.7 μL of either cells or buffer added. • 6. Prior to assay, cell and buffer-only incubation plates were preincubated for 10 mins at 37° C. • 7. The assay was initiated by adding compounds, 3.3 μL of 1 mM in 10% DMSO-90% Buffer; final DMSO concentration is 0.1%. • 8. Samples were taken at regular timepoints (0, 5, 10, 20, 40, 60 min) until 60 mins. • 9. Sample volume was 40 μL and was added to 160 μL of crash solvent (acetonitrile with internal standard) and stored on ice. • 10. At the end of the assay, the crash plates were centrifuged at 3500 rpm for 20 mins at 4° C. • 11. 80 μL of clear supernatant was removed and mixed with 80 μL of deionised water before being analysed by LC-MS/MS.
(§4) Raw LC-MS/MS data was exported to, and analysed in, Microsoft Excel for determination of intrinsic clearance. The percentage remaining of a compound was monitored using the peak area of the initial concentration as 100%. Intrinsic clearance and half-life values were calculated using a graph of the natural log of percentage remaining versus the time of reaction in minutes. Half-life (min) and intrinsic clearance (CIint in μL min^−1 10^−6 cells) values were calculated using the gradient of the graph (the elimination rate constant, k) and Equations 1 and 2.

[2] = as above; assay type: in vitro ADME; settings: cryopreserved hepatocytes, Mouse hepatocytes, 10 μM, 60 min, read-out: T½
Source text: as §1, §2, §3, §4

IL-1β = assay: THP-1 AlphaLISA IL-1β cytokine inhibition assay (differentiated THP-1 cells); assay type: cell-based; settings: LPS 24 hr then Nigericin 1 hour
Protocol: Biological Example 1—THP-1 AlphaLISA IL-1β
Measuring Inhibitory Effects on IL-1, Cytokine Output from THP-1s
(§5) The cytokine inhibition profiles of compounds of formula (I) were determined in a differentiated THP-1 cell assay. All assays were performed in RPMI-1640 growth medium (Gibco), supplemented with 10% fetal bovine serum (FBS; Gibco), 1% penicillin-streptomycin and 1% sodium pyruvate unless specified otherwise. The IL-1p cytokine inhibition assay was run in a background of differentiated THP-1 cells as described below. All reagents described were from Sigma-Aldrich unless specified otherwise. Compounds were prepared as 10 mM DMSO stocks.
(§6) THP-1 cells were expanded as a suspension up to 80% confluence in appropriate growth medium. Cells were harvested, suspended, and treated with an appropriate concentration of phorbol 12-myristate 13-acetate (PMA) over a 72 hr period (37° C./5% CO2).
(§7) Following 72 hrs of THP-1 cell incubation, cellular medium was removed and replaced with fresh growth media containing 1% of FBS. Working concentrations of compounds were prepared separately in 10% FBS treated growth medium and pre-incubated with the cells for 30 minutes (37° C./5% CO2). Following the 30 minute compound pre-incubation, THP-1s were treated with an appropriate concentration of LPS and the cells were subsequently incubated for a 24 hr period (37° C./5% CO2). An appropriate final concentration of Nigericin was then dispensed into the THP-1 plates and incubated for 1 hour (37° C./5% CO2) before THP-1 supernatants were harvested and collected in separate polypropylene 96-well holding plates.
(§8) Reagents from an IL-1β and IL-6 commercial kit (Perkin Elmer) were prepared and run according to the manufacturer's instructions. Subsequently, fluorescence signal detection in a microplate reader was measured (EnVision® Multilabel Reader, Perkin Elmer).
(§9) Percentage inhibition was calculated per cytokine by normalising the sample data to the high and low controls used within each plate (+/−LPS respectively). Percentage inhibition was then plotted against compound concentration and the 50% inhibitory concentration (IC50) was determined from the resultant concentration-response curve.

[3] = system: cryo-preserved hepatocytes; assay: Hepatocyte stability assay, human cryopreserved hepatocytes; assay type: in vitro ADME
Source text: as §1, §2, §3, §4

[4] = as above; assay type: in vitro ADME; settings: cryopreserved hepatocytes, Human hepatocytes, 10 μM, 60 min, read-out: T½
Source text: as §1, §2, §3, §4

IL-6 = assay: THP-1 AlphaLISA IL-6 cytokine inhibition assay (differentiated THP-1 cells); assay type: cell-based; settings: LPS 24 hr then Nigericin 1 hour
Protocol: as §5, §6, §7, §8, §9

[5] = Mouse hepatocytes, 10 μM, 60 min, numeric values
[6] = Human hepatocytes, 10 μM, 60 min, numeric values
[7] = Homo sapiens, normalised to DMF high control, class symbols
[8] = Mouse hepatocytes, 10 μM, 60 min, class symbols
[9] = compared to 4-octyl itaconate, ethyl 2-(2-chlorobenzyl)acrylate and 2-(2-chlorobenzyl)acrylic acid

Row | EC50 (NRF2; Homo sapiens, class symbols) | Clint [1, 8] | half-life at 10 μM ([2]; class symbols) | IC50 (IL-1β; Homo sapiens, class symbols) | half-life at 10 μM ([4]; class symbols) | IC50 (IL-6; Homo sapiens, class symbols) | SMILES | Emax (NRF2; [7]) | other results
1 | < 5 µM | + (+ means ≥351) | ≤ 4 min | < 5 µM | 5 to 59 min | < 5 µM | C=C(Cc1nc(Cc2ccc(CCCC)cc2)no1)C(=O)OCC(=O)O [Example 13, 2-((2-((3-(4-butylbenzyl)-1,2,4-oxadiazol-5-yl)methyl)acryloyl)oxy)acetic acid] | 166 to 250% | –
2 | 5 to 10 µM | ++ (++ means 95-350) | 5 to 11 min | < 5 µM | 60 to 100 min | < 5 µM | C=C(Cc1nc(C2(c3ccc(Br)cc3)CC2)no1)C(=O)OCC(=O)O [Example 18, 2-((2-((3-(1-(4-bromophenyl)cyclopropyl)-1,2,4-oxadiazol-5-yl)methyl)acryloyl)oxy)acetic acid] | 166 to 250% | –
3 | 5 to 10 µM | ++ (++ means 95-350) | 5 to 11 min | < 5 µM | 5 to 59 min | < 5 µM | C=C(Cc1nc(C2(c3ccc(OC(F)(F)F)cc3)CC2)no1)C(=O)OCC(=O)O [Example 19, 2-((2-((3-(1-(4-(trifluoromethoxy)phenyl)cyclopropyl)-1,2,4-oxadiazol-5-yl)methyl)acryloyl)oxy)acetic acid] | 166 to 250% | –
4 | < 5 µM | + (+ means ≥351) | ≤ 4 min | < 5 µM | 5 to 59 min | < 5 µM | C=C(Cc1nc(C2(c3ccc(SC(F)(F)F)cc3)CC2)no1)C(=O)OCC(=O)O [Example 22, 2-((2-((3-(1-(4-((trifluoromethyl)thio)phenyl)cyclopropyl)-1,2,4-oxadiazol-5-yl)methyl)acryloyl)oxy)acetic acid] | 135 to 165% | –

Further lines, the compound ahead of its results:

Row | SMILES | EC50 (NRF2; Homo sapiens, class symbols) | Clint [1, 8] | half-life at 10 μM ([2]; class symbols) | IC50 (IL-1β; Homo sapiens, class symbols) | half-life at 10 μM ([4]; class symbols) | IC50 (IL-6; Homo sapiens, class symbols) | Emax (NRF2; [7]) | other results
5 | C=C(Cc1ccccc1Cl)C(=O)O [2-(2-chlorobenzyl)acrylic acid, reference compound] | – | – | – | – | – | – | – | Emax (NRF2; Homo sapiens, normalised to DMF high control, numeric values): 2%; EC50 (NRF2; Homo sapiens, numeric values): > 100 µM; Clint [1, 5]: 95 μL min^−1 10^−6 cells; half-life at 10 μM ([2]; numeric values): 11 min; IC50 (IL-1β; Homo sapiens, numeric values): > 100 µM; Clint [3, 6]: 21 μL min^−1 10^−6 cells; half-life at 10 μM ([4]; numeric values): 59 min
6 | C=C(CC(=O)OCCCCCCCC)C(=O)O [4-octyl itaconate, reference compound] | – | – | – | – | – | – | – | NRF2 activation Emax (NRF2; normalised to DMF high control, numeric values): 165%; EC50 (NRF2; numeric values): 22 µM; Clint [1, 5]: 351 μL min^−1 10^−6 cells; T½ [1, 5]: 4 min; IC50 (IL-1β; numeric values): 33 µM; IC50 (IL-6; numeric values): 25 µM; Clint [3, 6]: 401 μL min^−1 10^−6 cells; T½ [3, 6]: 4 min
7 | C=C(Cc1nc(Cc2ccc(Cl)cc2)no1)C(=O)OCC(=O)O [Example 3, 2-((2-((3-(4-chlorobenzyl)-1,2,4-oxadiazol-5-yl)methyl)acryloyl)oxy)acetic acid] | 11 to 21 µM | +++ (For Clint (μL min^−1 10^−6 cells; mouse), +++ means <95) | > 11 min | 11 to 20 µM | > 100 min | – | 135 to 165% | Stability in mouse hepatocytes compared to comparators [1, 9]: more stable; Stability in human hepatocytes compared to comparators [3, 9]: more stable
8 | C=C(Cc1nc(Cc2ccc(CCCC)cc2)no1)C(=O)O[C@@H](CC(=O)O)C(F)(F)F [Example 10, (S)-3-((2-((3-(4-butylbenzyl)-1,2,4-oxadiazol-5-yl)methyl)acryloyl)oxy)-4,4,4-trifluorobutanoic acid] | < 5 µM | + (+ means ≥351) | ≤ 4 min | < 5 µM | < 5 min | < 5 µM | 135 to 165% | –
9 | C=C(Cc1nc(Cc2ccc(CCCC)cc2)no1)C(=O)OCCc1nnn[nH]1 [Example 14, 2-(1H-tetrazol-5-yl)ethyl 2-((3-(4-butylbenzyl)-1,2,4-oxadiazol-5-yl)methyl)acrylate] | < 5 µM | + (+ means ≥351) | ≤ 4 min | < 5 µM | 5 to 59 min | < 5 µM | 135 to 165% | –
10 | C=C(Cc1nc(Cc2ccc(CCCC)cc2)no1)C(=O)OCc1nnn[nH]1 [Example 16, (1H-tetrazol-5-yl)methyl 2-((3-(4-butylbenzyl)-1,2,4-oxadiazol-5-yl)methyl)acrylate] | < 5 µM | + (+ means ≥351) | ≤ 4 min | < 5 µM | 5 to 59 min | < 5 µM | 135 to 165% | –
11 | C=C(Cc1ccccc1Cl)C(=O)OCC [ethyl 2-(2-chlorobenzyl)acrylate, reference compound] | – | – | – | – | – | – | – | Clint [1, 5]: >460 μL min^−1 10^−6 cells; half-life at 10 μM ([2]; numeric values): < 3 min; IC50 (IL-1β; Homo sapiens, numeric values): > 100 µM; Clint [3, 6]: >460 μL min^−1 10^−6 cells; half-life at 10 μM ([4]; numeric values): < 3 min
